The record followed here is PubChem BioAssay AID504657 (Sanford-Burnham Center for Chemical Genomics, 2011).

Activity calls are given as the source filed them. The rule behind the calls is not given here.

For the experiment, the system named is S. cerevisiae tim10-1 mutant, luminescence counterscreen. The experiment is described as follows: tim10-1 yeast luminescent signal inhibition – luminescence, S. cerevisiae, uHTS hits, counter-screen for tim23-1 inhibitor project, dose response (AID 504657). Background: A counterscreen serves to expose hits that act by an unwanted route or on another target.
The IC50 is the concentration that gives 50% inhibition. `C=C1CCc2c([nH]c3ccc(OCC(C)C)cc23)C1=O`: the IC50 was > 100 µM (inactive).
For `Cc1cc(C)nc(SCC(=O)c2cc3ccccc3oc2=O)n1` the value was > 100 µM (inactive).
In the case of `C(=C\c1ccccc1)/C=N/Nc1nc2ccccc2[nH]1`, the IC50 is > 100 µM (inactive).
For `CN1CCc2nc3sc(C(=O)C45CC6CC(CC(C6)C4)C5)c(N)c3cc2C1` the value was > 100 µM (inactive).
Then `O=c1cc(C(Cl)(Cl)Cl)oc2c1ccc1ccccc12`, with > 100 µM (inactive); and `Cc1nc2scc(C)n2c(=O)c1S(=O)(=O)Nc1ccc(OC(F)(F)F)cc1`, with > 100 µM (inactive); and `COc1ccc(/C=C/C(=O)Nc2ccc3c(c2)CCC3)cc1OC`, with > 100 µM (inactive).
Then `O=C(N/N=C/C=C\c1ccco1)c1cccs1`, with > 100 µM (inactive); and `O=C1OC(c2ccccc2)=N/C1=C\C=C\c1ccco1`, with > 100 µM (inactive).
With `O=C(Nc1ccc(-c2cn3ccccc3n2)cc1)c1cccs1`, the IC50 is > 100 µM (inactive).
Take `CCOC(=O)c1ccc(NC(=O)CSc2nc(=O)n3cccc(C)c3n2)cc1`: the IC50 was > 100 µM (inactive).
Regarding `Cc1ccc(Nc2nc(-c3cccnc3)nc3ccccc23)cc1`, the IC50 was > 100 µM (inactive).
Then `O=C(Nc1ccc2nc(-c3ccc(Br)o3)[nH]c2c1)c1cccs1`, with > 100 µM (inactive).
For `O=C(Nc1cc(-c2ccccc2)[nH]n1)c1ccccc1` the value was > 100 µM (inactive); for `Oc1ccc(Oc2ccc(Oc3ccc(O)cc3)cc2)cc1`, > 100 µM (inactive); for `Cc1ccc(-c2nn(-c3ccccc3)cc2NC(=O)CCl)cc1`, > 100 µM (inactive).
Then `O=C(Nc1ccc(-c2cn3c(n2)SCC3)cc1)c1ccco1`, with > 100 µM (inactive).
As for `Cc1ccc2[nH]cc(C(=O)CCl)c2c1`, the IC50 was > 100 µM (inactive).
Then `COc1ccc(C(=O)N/N=C\c2coc3ccc(Cl)cc3c2=O)cc1`, with > 100 µM (inactive).
Then `O=C(N/N=C/c1coc2ccc(Cl)cc2c1=O)c1ccncc1`, with > 100 µM (inactive); and `CSc1nnc(C(C)(C)C)c(=O)n1/N=C/c1ccccc1`, with > 100 µM (inactive).
Then `CCOC(=O)c1cccnc1SCc1cc(=O)n2ccccc2n1`, with > 100 µM (inactive); and `CC(C)OC(=O)c1cccnc1SCc1cc(=O)n2ccccc2n1`, with > 100 µM (inactive).
Regarding `O=c1oc(Cl)c(Cl)c2ccccc12`, the IC50 is > 100 µM (inactive).
Take `Cc1ccc(CS(=O)(=O)c2ncc(Cl)c(C(=O)Nc3ccc(OC(F)F)cc3)n2)cc1`: the IC50 is > 100 µM (inactive).
Then `CCn1c(N2CCN(S(=O)(=O)c3ccc(OC)cc3)CC2)nc2ccccc21`, with > 100 µM (inactive).
With `CO/C(N)=C(\C#N)N=Cc1ccccc1Cl`, the IC50 was > 100 µM (inactive).
For `O=C(/C=C/c1ccccc1Cl)Nc1ccccc1` the value was > 100 µM (inactive).
Then `O=C(Nc1nc2ccccc2s1)C1CCCN1S(=O)(=O)c1ccc(Cl)cc1` (stereo not given), with > 100 µM (inactive).
Then `Cc1nc2scc(C)n2c(=O)c1S(=O)(=O)Nc1ccc(N2CCOCC2)cc1`, with > 100 µM (inactive).
In the case of `CCN(CC)S(=O)(=O)c1ccc(C(=O)OCn2nnc3ccccc3c2=O)cc1`, the IC50 is > 100 µM (inactive).
Then `O=C(N/N=C/c1coc2ccc(Cl)cc2c1=O)c1cc(O)cc(O)c1`, with > 100 µM (inactive); and `CC(C)(C)c1csc(NC(=O)c2ccc(Cl)s2)n1`, with > 100 µM (inactive); and `CCOC(=O)c1sc(=NC(=O)c2ccco2)n(C)c1C`, with > 100 µM (inactive).
Then `N#C/C(=C/c1ccc(N2CCOCC2)o1)c1nc2ccccc2[nH]1`, with > 100 µM (inactive).
With `Cc1ccc2nc(N3C(=O)CNC3=S)sc2c1`, the IC50 is > 100 µM (inactive).
Regarding `CCCN(C(=O)c1ccc([N+](=O)[O-])c(C)c1)c1c(N)n(Cc2ccccc2)c(=O)[nH]c1=O`, the IC50 was > 100 µM (inactive).
As for `COc1cc2c(cc1OC)/C(=C/c1ccc(Cl)cc1)C(=O)OC2`, the IC50 was > 100 µM (inactive).
Then `N#C/C(=C\c1ccc(Cl)cc1)C(=O)Nc1cccnc1`, with > 100 µM (inactive); and `CN(C)/C=C1/C=C(c2ccccc2)OC1=O`, with 94.1 µM; and `O=C(CSc1cccc[n+]1[O-])Nc1ccccc1Oc1ccccc1`, with > 100 µM (inactive).
For `COc1ccc2c(c1)sc1nc(-c3ccccc3)cn12` the value was > 100 µM (inactive).
For `CC(C)Cn1cnc2c(c(-c3ccccc3)c(-c3ccccc3)n2Cc2ccco2)c1=N` the value was > 100 µM (inactive); for `CCCCn1c(N)c(N(CCC(C)C)C(=O)c2ccc3c(c2)OCO3)c(=O)[nH]c1=O`, > 100 µM (inactive); for `Cc1cc2cc(CNC(=O)c3ccc(C)c([N+](=O)[O-])c3)ccc2[nH]1`, > 100 µM (inactive).
On to `O=c1c(O)c(-c2ccccc2)oc2cc(O)cc(O)c12`, for which the IC50 is > 100 µM (inactive).
Then `Cc1nc2ccc(C(C(F)(F)F)(C(F)(F)F)C(F)(F)F)cc2[nH]1`, with > 100 µM (inactive).
Turning to `Oc1ccccc1C1NN=C(c2ccccc2)S1` (stereo not given), the IC50 is > 100 µM (inactive).
For `O=C(N/N=C/C(Cl)=C\c1ccccc1)c1cccs1` the value was > 100 µM (inactive); for `N#Cc1c(-c2ccccc2)cc(-c2ccc(O)cc2)nc1N`, > 100 µM (inactive).
